# Data reported in patent US7572439B2, “Enzyme disruption of bacterial biofilms” (priority 2002, dated 2009).
# Columns and labels:
# [1] = test system: Methicillin Sensitive S. aureus; test: Treatment of established infection in jugular vein catheterized mice; type: in vivo; conditions: Table 4, MSSA, Nafcillin (50) b.i.d. 4 days
# Experimental: Jugular vein catheterized mice (Charles River Labs) were used. The mice were challenged through the tail vein with S. aureus (10^3-10^4CFU, a much lower dose than the 5×10^6 CFU or greater typically necessary to establish an infection in mice not catheterized). Treatment began four days post challenge when infection was established. Lysostaphin was administered through the indwelling catheter in a volume of 200 μ PBS (in the case of methicillin resistant S. aureus, nafcillin was added to the treatment). After the final treatment of the day, 50 μl of a lock solution (50% sterile glucose solution) with lysostaphin (and nafcillin, when used), added at the same concentration as used for treatment, was put in the catheters. Control mice received equal treatments with PBS and lock solution alone.
# On the day following the last treatment the liver, heart and a portion of the catheter in the heart were harvested. The catheter portions were sonicated to release bacteria.
# [2] = test system: biofilms of S. aureus SA113; test: Kinetic effect on established biofilms: absorbance at 650 nm and safranin staining; type: cell-based; conditions: for effect on established biofilms (safranin): 400 μg/ml oxacillin or 800 μg/ml vancomycin, PBS or TSB, 24 hours; for absorbance of biofilms at 650 nM: as much as 400 μg/ml oxacillin or 800 μg/ml vancomycin in PBS; for absorbance of biofilms at 650 nM / effect on S. aureus biofilms (FIG. 8 legend): twenty four hours; for effect on absorbance of biofilms: in TSB, 24 hours (data not shown); for effect on S. aureus biofilms (FIG. 8 legend): PBS or bacterial media
# Experimental: Oxacillin and vancomycin have often been used in antibiotic susceptibility studies of S. aureus biofilms. […] Twenty four-hour biofilms in polystyrene 96-well tissue culture plates were treated with serial dilutions of lysostaphin, oxacillin, and vancomycin (FIG. 7).
# In order to examine the kinetic effect of lysostaphin, oxacillin and vancomycin on biofilms, the absorbance of established biofilms in a 96-well tissue culture plate was measured over time (0-3 hrs and 24 hrs). Tissue culture wells containing biofilms of S. aureus SA113 were incubated with serial dilutions of lysostaphin ([…]), oxacillin ([…]), or vancomycin ([…]) for 24 hours, and the absorbance at 650 nm was monitored every 20 minutes for the first 3 hours and then again at 24 hours. The absorbance of the lysostaphin-treated biofilms dropped from approximately 0.35 at time zero to 0.125 after 3 hours of treatment and dropped to near base line (0.04) by 24 hrs when treated with a dose of lysostaphin of 6.25 μg/ml in PBS (FIG. 7). […] Since antimicrobials like oxacillin or vancomycin are effective against actively metabolizing bacteria, a similar experiment was conducted but the biofilms were incubated with the three anti-microbials in bacterial media (TSB). Very similar results were also found when the assay was conducted in TSB rather than PBS.
# The capacity of the three agents to disrupt S. aureus biofilms in polystyrene wells can be visualized by comparing the staining intensity of treated wells versus control (buffer-treated) wells.
SMILES,"S. aureus recovered, Heart [1] [CFU]",effect on established biofilms (safranin) [2],absorbance of biofilms at 650 nM [2],effect on absorbance of biofilms [2],"effect on absorbance of S. aureus biofilms over time (FIG. 7 legend) ([2]; lysostaphin 6.25 cg/ml, vancomycin 800 cg/ml, oxacillin 400 cg/ml)","effect on S. aureus biofilms (FIG. 8 legend) ([2]; oxacillin 1.6-400 cg/ml, vancomycin 3.2-800 cg/ml)","effect on absorbance of S. aureus biofilms over time (FIG. 7 legend) ([2]; lysostaphin 6.25 μg/ml, vancomycin 800 μg/ml, oxacillin 400 μg/ml)","effect on S. aureus biofilms (FIG. 8 legend) ([2]; oxacillin 1.6-400 μg/ml, vancomycin 3.2-800 μg/ml)"
"CCOc1ccc2ccccc2c1C(=O)N[C@@H]1C(=O)N2[C@@H]1SC(C)(C)[C@@H]2C(=O)O [Nafcillin, nafcillin, reference compound]",0,–,–,–,–,–,–,–
Cc1onc(-c2ccccc2)c1C(=O)N[C@@H]1C(=O)N2[C@@H]1SC(C)(C)[C@@H]2C(=O)O [oxacillin],–,no obvious effect,around 0.325,little or no effect,no effect,no effect,–,–
CN[C@H](CC(C)C)C(=O)N[C@H]1C(=O)N[C@@H](CC(N)=O)C(=O)N[C@H]2C(=O)N[C@H]3C(=O)N[C@H](C(=O)N[C@H](C(=O)O)c4cc(O)cc(O)c4-c4cc3ccc4O)[C@H](O)c3ccc(c(Cl)c3)Oc3cc2cc(c3O[C@@H]2O[C@H](CO)[C@@H](O)[C@H](O)[C@H]2O[C@H]2C[C@](C)(N)[C@H](O)[C@H](C)O2)Oc2ccc(cc2Cl)[C@H]1O [vancomycin],–,no obvious effect,around 0.325,little or no effect,–,–,no effect,no effect
